From article doi:10.1101/2021.09.30.462449v1 (biorxiv, 2021)

Tests used:
Assay in all cases: biochemical
Settings in all cases: read-out: % inhibition mean (Adapta)
CDK4/cyclin D1 = CDK4/cyclin D1 (Homo sapiens, UniProt P11802)
CDK7/cyclin H/MNAT1 = CDK7/cyclin H/MNAT1 (Homo sapiens, UniProt P50613)
CHUK (IKK alpha) = CHUK (IKK alpha) (Homo sapiens, UniProt O15111)
DAPK1 = DAPK1 (Homo sapiens, UniProt P53355)
GSG2 (Haspin) = GSG2 (Haspin) (Homo sapiens, UniProt Q8TF76)
IRAK1 = IRAK1 (Homo sapiens, UniProt P51617)
LRRK2 FL = LRRK2 FL (Homo sapiens, UniProt Q5S007)
LRRK2 G2019S = LRRK2 G2019S (Homo sapiens, UniProt Q5S007, G2019S)
LRRK2 G2019S FL = LRRK2 G2019S FL (Homo sapiens, UniProt Q5S007, G2019S)
LRRK2 I2020T = LRRK2 I2020T (Homo sapiens, UniProt Q5S007, I2020T)
PI4K2A (PI4K2 alpha) = PI4K2A (PI4K2 alpha) (Homo sapiens, UniProt Q9BTU6)
PI4K2B (PI4K2 beta) = PI4K2B (PI4K2 beta) (Homo sapiens, UniProt Q8TCG2)
PI4KB (PI4K beta) = PI4KB (PI4K beta) (Homo sapiens, UniProt Q9UBF8)
[1] = biological target: PIK3CA/PIK3R3 (p110 alpha/p55 gamma) (Homo sapiens, UniProt P42336)
[2] = biological target: PIK3CB/PIK3R1 (p110 beta/p85 alpha) (Homo sapiens, UniProt P42338)
[3] = biological target: PIK3CB/PIK3R2 (p110 beta/p85 beta) (Homo sapiens, UniProt P42338)
[4] = biological target: PIK3CD/PIK3R1 (p110 delta/p85 alpha) (Homo sapiens, UniProt O00329)
PIK3CG (p110 gamma) = PIK3CG (p110 gamma) (Homo sapiens, UniProt P48736)
PIP4K2A = PIP4K2A (Homo sapiens, UniProt P48426)
PIP5K1B = PIP5K1B (Homo sapiens, UniProt O14986)

LRRK2 G2019S, sequence (Q5S007 whole entry G2019S): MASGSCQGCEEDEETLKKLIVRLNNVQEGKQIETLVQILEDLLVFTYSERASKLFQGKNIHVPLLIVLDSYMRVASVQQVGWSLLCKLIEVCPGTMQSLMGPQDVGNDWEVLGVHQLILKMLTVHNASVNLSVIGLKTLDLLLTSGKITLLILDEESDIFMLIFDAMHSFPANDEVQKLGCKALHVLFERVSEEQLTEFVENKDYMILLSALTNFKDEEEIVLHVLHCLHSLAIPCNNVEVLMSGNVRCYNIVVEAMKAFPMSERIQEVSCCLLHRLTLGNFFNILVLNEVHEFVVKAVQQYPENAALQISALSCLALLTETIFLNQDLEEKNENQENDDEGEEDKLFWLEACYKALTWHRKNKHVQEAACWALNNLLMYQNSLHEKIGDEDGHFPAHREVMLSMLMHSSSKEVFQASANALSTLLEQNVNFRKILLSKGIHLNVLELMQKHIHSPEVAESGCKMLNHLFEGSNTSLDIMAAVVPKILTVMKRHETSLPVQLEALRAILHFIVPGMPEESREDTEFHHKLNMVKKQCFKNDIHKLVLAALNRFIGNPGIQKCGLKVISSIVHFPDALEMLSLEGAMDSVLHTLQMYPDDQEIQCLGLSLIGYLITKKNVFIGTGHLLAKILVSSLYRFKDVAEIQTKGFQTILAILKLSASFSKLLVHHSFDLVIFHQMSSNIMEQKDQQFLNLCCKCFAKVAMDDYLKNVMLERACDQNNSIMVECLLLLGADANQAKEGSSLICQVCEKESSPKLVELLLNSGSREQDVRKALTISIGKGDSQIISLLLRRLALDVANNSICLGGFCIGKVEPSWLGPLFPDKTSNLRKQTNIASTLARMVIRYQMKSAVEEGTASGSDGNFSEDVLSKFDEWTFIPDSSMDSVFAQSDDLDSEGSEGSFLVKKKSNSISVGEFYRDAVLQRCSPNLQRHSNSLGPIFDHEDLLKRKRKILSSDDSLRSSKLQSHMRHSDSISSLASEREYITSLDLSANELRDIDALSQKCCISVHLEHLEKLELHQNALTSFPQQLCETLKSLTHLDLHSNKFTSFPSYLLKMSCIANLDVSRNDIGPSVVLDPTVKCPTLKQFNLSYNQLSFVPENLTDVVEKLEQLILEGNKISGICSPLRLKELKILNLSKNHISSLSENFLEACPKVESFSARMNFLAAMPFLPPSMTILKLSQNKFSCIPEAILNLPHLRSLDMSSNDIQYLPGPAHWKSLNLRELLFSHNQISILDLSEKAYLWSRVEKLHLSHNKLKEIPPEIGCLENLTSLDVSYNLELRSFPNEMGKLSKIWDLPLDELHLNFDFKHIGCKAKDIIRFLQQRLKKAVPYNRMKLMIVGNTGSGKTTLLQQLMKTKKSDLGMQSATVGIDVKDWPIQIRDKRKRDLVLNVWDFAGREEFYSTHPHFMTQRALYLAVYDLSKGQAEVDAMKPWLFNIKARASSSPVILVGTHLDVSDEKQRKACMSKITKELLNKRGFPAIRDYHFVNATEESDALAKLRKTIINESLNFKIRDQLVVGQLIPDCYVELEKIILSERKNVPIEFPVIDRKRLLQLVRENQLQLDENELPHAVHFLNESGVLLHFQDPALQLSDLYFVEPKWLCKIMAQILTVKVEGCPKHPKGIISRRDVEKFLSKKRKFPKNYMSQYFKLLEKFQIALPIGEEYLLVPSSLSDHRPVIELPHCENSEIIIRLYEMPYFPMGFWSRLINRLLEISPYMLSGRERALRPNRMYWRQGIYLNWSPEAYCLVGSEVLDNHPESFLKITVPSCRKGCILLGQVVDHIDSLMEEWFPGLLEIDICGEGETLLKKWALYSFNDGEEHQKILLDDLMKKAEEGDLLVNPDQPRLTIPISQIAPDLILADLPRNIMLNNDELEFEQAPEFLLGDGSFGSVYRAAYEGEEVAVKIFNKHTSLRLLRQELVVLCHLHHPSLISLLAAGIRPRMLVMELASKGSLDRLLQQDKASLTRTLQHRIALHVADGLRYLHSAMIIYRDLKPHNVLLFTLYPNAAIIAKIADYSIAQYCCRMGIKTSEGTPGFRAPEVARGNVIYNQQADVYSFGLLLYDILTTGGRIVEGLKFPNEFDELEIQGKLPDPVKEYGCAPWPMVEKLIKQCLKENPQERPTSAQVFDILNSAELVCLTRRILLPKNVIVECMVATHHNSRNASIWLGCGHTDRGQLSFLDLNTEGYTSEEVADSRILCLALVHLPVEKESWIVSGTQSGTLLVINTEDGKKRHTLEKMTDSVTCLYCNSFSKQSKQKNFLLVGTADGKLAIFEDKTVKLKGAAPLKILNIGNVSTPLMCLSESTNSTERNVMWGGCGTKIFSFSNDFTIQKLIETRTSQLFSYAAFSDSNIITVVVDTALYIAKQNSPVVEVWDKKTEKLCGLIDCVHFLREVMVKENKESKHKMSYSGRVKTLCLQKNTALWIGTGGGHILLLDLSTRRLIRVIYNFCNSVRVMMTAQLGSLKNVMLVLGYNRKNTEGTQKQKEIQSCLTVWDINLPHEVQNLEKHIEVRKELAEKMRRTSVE
LRRK2 G2019S FL, sequence (Q5S007 whole entry G2019S): as above
LRRK2 FL, sequence (Q5S007 whole entry): as the sequence (Q5S007 whole entry G2019S) above, with S2019G counted along it
CHUK (IKK alpha), sequence (O15111 whole entry): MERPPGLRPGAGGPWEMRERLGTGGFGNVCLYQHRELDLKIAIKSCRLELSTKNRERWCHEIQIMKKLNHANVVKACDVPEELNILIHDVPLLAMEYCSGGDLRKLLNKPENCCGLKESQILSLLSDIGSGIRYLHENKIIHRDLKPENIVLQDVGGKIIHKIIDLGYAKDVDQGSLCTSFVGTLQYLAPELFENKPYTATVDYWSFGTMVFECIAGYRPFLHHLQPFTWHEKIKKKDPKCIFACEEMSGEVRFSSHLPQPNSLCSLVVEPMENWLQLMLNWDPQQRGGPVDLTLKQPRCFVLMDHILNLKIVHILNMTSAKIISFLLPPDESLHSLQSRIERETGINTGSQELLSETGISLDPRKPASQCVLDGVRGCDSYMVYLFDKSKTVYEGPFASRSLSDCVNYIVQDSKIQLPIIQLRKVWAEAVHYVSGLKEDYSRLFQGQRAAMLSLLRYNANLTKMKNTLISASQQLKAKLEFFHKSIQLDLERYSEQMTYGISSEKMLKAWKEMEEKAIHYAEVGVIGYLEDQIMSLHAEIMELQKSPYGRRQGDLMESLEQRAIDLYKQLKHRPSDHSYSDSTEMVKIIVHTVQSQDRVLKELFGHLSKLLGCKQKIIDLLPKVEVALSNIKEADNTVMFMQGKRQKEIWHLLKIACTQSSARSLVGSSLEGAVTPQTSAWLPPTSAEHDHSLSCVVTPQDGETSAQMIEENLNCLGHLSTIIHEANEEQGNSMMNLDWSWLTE
PI4K2A (PI4K2 alpha), sequence (Q9BTU6 whole entry): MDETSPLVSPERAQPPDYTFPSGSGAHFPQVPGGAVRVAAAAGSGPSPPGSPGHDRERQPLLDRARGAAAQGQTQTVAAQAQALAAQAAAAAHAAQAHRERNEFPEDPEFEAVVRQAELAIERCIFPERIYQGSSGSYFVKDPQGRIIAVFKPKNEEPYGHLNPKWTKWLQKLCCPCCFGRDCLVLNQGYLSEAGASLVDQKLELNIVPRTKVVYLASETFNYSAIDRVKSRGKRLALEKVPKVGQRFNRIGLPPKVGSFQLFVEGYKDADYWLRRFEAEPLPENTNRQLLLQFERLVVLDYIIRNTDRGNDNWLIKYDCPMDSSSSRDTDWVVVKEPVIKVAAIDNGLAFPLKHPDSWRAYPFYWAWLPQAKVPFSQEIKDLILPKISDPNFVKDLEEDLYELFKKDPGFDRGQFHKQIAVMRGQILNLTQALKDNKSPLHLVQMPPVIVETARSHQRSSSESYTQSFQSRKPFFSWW
PIP4K2A, sequence (P48426 whole entry): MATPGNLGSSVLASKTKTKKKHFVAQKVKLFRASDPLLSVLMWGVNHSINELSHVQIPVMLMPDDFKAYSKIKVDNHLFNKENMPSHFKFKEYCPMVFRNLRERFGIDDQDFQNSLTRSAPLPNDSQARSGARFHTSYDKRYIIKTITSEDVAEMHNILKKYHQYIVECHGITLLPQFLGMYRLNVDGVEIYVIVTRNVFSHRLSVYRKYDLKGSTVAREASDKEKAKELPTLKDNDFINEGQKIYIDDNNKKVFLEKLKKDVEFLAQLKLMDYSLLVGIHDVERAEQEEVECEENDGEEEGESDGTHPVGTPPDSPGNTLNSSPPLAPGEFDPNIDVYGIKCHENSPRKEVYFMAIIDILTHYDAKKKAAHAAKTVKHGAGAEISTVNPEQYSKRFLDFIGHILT
PI4KB (PI4K beta), sequence (Q9UBF8 whole entry): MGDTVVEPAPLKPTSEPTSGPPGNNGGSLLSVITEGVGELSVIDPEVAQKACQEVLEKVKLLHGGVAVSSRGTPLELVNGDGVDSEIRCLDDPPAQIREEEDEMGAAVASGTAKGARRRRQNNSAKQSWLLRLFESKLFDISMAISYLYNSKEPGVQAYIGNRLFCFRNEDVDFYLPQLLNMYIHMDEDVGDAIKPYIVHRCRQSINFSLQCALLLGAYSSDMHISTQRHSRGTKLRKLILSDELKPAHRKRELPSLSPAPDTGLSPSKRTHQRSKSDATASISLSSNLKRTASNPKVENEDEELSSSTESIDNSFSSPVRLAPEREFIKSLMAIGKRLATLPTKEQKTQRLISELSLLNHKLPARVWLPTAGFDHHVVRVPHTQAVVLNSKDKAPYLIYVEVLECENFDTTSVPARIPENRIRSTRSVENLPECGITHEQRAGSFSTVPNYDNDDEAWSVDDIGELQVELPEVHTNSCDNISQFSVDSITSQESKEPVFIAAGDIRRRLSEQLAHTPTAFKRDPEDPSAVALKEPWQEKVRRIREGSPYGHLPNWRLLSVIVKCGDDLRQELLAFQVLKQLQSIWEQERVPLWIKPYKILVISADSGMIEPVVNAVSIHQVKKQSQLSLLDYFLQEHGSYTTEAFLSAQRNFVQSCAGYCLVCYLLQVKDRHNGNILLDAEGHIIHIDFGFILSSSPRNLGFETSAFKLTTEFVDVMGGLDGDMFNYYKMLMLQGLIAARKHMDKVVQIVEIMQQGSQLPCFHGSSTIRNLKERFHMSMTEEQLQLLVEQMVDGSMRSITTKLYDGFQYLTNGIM
LRRK2 I2020T, sequence (Q5S007 whole entry I2020T): as the sequence (Q5S007 whole entry G2019S) above, with S2019G, I2020T counted along it

COc1ccc2nc3cc(Cl)ccc3c(Nc3cc(CN4CCCC4)c(O)c(CN4CCCC4)c3)c2n1 [Pyronaridine, 4-[(7-Chloro-2-methoxybenzo[b][1,5]naphthyridin-10-yl)amino]-2,6-bis(1-pyrrolidinylmethyl)phenol phosphate (1:4)]
inhibition at 1 µM (CDK4/cyclin D1): 1% | inhibition at 1 µM (CDK7/cyclin H/MNAT1): -13% | inhibition at 1 µM (CHUK (IKK alpha)): 0% | inhibition at 1 µM (DAPK1): 11% | inhibition at 1 µM (GSG2 (Haspin)): 9% | inhibition at 1 µM (IRAK1): -4% | inhibition at 1 µM (LRRK2 FL): -4% | inhibition at 1 µM (LRRK2 G2019S): 4% | inhibition at 1 µM (LRRK2 G2019S FL): -10% | inhibition at 1 µM (LRRK2 I2020T): -15% | inhibition at 1 µM (PI4K2A (PI4K2 alpha)): 4% | inhibition at 1 µM (PI4K2B (PI4K2 beta)): 2% | inhibition at 1 µM (PI4KB (PI4K beta)): 5% | inhibition at 1 µM [1]: 1% | inhibition at 1 µM [2]: -11% | inhibition at 1 µM [3]: -2% | inhibition at 1 µM [4]: 9% | inhibition at 1 µM (PIK3CG (p110 gamma)): 2% | inhibition at 1 µM (PIP4K2A): 15% | inhibition at 1 µM (PIP5K1B): -11%
